Experiment in all cases: MIC against defined topoisomerase mutants
Holding throughout (format): cell-based

Assay [1] has as its system S. aureus topoisomerase mutants. The note with it: Staphylococcus aureus.
The test system of assay [2] is S. pneumoniae topoisomerase mutants. The note with it: Streptococcus pneumoniae.
The test system of assay [3] is E. coli topoisomerase mutants. The conditions noted are these: Escherichia coli. How it is done:
Furthermore, an experiment was conducted to assess the mechanism of action of besifloxacin in S. pneumoniae, S. aureus, and E. coli via step selections for isolates with decreased susceptibility to besifloxacin, as well as by testing for altered susceptibilities of ciprofloxacin-resistant variants of all three species containing genetically defined mutations in the quinolone resistance determining regions (QRDRs) of structural genes encoding DNA gyrase and topoisomerase IV (Table 2).

Each structure is given as a SMILES string. In brackets after ≈: the same amount, converted by molar mass.

In general, MIC refers to the least concentration at which growth counts as inhibited. Take `O=C(O)c1cn(C2CC2)c2cc(N3CCNCC3)c(F)cc2c1=O` [Ciprofloxacin]: the MIC in assay [1] (S. aureus Wild type) worked out at 1 µg/mL (≈ 3.02 µM); in assay [1] (S. aureus parC S80F + gyrA S84L), 64 µg/mL; in assay [2] (S. pneumoniae parC S79Y), 8 µg/mL (≈ 24.1 µM); in assay [2] (S. pneumoniae parC S79Y + gyrA S81F) it was 64 µg/mL; in assay [3] (E. coli Wild type) it was 0.008 µg/mL (≈ 0.0241 µM); in assay [3] (E. coli gyrA D87Y (or S83L)) it was 0.12 µg/mL (≈ 0.362 µM). The minimal inhibitory concentration (MIC) in assay [3] (E. coli gyrA S83L + parC S80R) was determined as 4 µg/mL; in assay [3] (E. coli gyrA S83L + parE H445L), 0.12 µg/mL; in assay [3] (E. coli gyrB D426N), 0.03 µg/mL (≈ 0.0905 µM).

The values above are taken from patent US8415342B2, “Besifloxacin ophthalmic composition for the treatment or control of infection” (Bausch & Lomb Incorporated, priority 2008, dated 2013).
